These results are taken from patent publication US9920383B2, “Active substances for increasing the stress defense in plants to abiotic stress, and methods of finding them” (Bayer Intellectual Property GMBH, priority 2005, dated 2018).

The data set deals with maize plants. The data set is described as follows: Chill-stress experiment (greenhouse) with maize plants, pre-emergence treatment. Type of data set: in vivo, maize cv. Lorenzo. Conditions: for Number of damaged plants (chloroses): chill stress 6 h at −2° C, 20 plants per group. From the text:
Maize seeds cv. Lorenzo were sown into 10-cm-pots into compost at a rate of 10 seeds per pot. All experimental groups consisted of in each case 4 pots. The sown seeds of test groups 1 and 2 were sprayed pre-emergence with 50 and 100 [g a.i./ha], respectively, of the compound 4-cyclopropylaminocarbonyl-N-(2-methoxybenzoyl)benzenesulfonamide (=VIII-3). The seeds of the control group remained untreated. The plants were raised under controlled conditions in a controlled-environment chamber [white light (long day: 16 h light, 8 h dark), 22° C. day-time temperature, 14° C. night-time temperature, 60% atmospheric humidity].
After germination, when the plants had attained a length of approx. 1 cm, 2 pots from each group were incubated for 6 h in a different controlled-environment chamber under chill-stress conditions at −2° C. Thereafter, these plants were returned to the others in the first controlled-environment chamber.
To evaluate the experiment quantitatively, the plants with chloroses of the leaf tips were counted. The total number of the plants per test group and cold stress treatment was 20, provided over 2 pots in each case.

SMILES strings stand for the structures.

On to `COc1ccccc1C(=O)NS(=O)(=O)c1ccc(C(=O)NC2CC2)cc1` [VIII-3, 4-cyclopropylaminocarbonyl-N-(2-methoxybenzoyl)benzenesulfonamide], for which the “Number of damaged plants (chloroses)” value was determined as 1 (50 g a.i./ha pre-emergence) and 0 (100 g a.i./ha pre-emergence). The “occurrence of chill stress damage symptoms” value (at the higher dosage rate) is listed as “completely prevents”. The “chloroses at the leaf tips after chill stress” value (plants treated with the active substance, 24 hours after chill stress) was “either absent or only very weakly pronounced”. Further, under “test groups kept exclusively under standard conditions without chill stress”, the “plants showing damage symptoms” value was “None”. Moreover, the “damage symptoms which are the result of chill stress” value (treatment with the active substance (lower dosage rate)) is recorded as “markedly reduce”.
